Key:
Assay in all cases: Mycelium radial growth inhibition on malt extract/peptone agar (MIC) and Kull synergism
Assay type in all cases: cell-based
Coriolus versicolor = settings: for Qa = concentration of substance A which is the MIC: 26° C. agar; for Qb = concentration of substance B which is the MIC: b = triadimefon alone
Description: (§1) Mycelium pieces were punched out of colonies of the wood-destroying organisms Coriolus versicolor, Poria placenta, Gloeophyllum trabeum and Cornophora puteana and incubated at 26° C. on a malt extract/peptone-containing nutrient agar. Here, the growth of the fungal threads with and without added active compound was compared. The stated minimum inhibitory concentration (MIC) is the active compound concentration at which the radial growth of the fungal threads is suppressed completely. Using the method described by Kull et al. (F. C. Kull, […]. Mayer, Applied Microbiology 9, 538 to 541, 1961), the synergism was determined. Here, the following relations apply: […]

Poria placenta = settings: 26° C. agar
Description: as §1

Gloeophyllum trabeum = system: Gloeophyllum trabeum
Description: as §1

Coniophora puteana = settings: 26° C. agar
Description: as §1

CCCC1COC(Cn2cncn2)(c2ccc(Cl)cc2Cl)O1 (centres unmarked) [propiconazole]
Qa = concentration of substance A which is the MIC (Coriolus versicolor; a = propiconazole alone): 3 | Qa = concentration of substance A which is the MIC (Poria placenta; a = propiconazole alone): 1

CC(C)(C)C(O)C(Oc1ccc(Cl)cc1)n1cncn1 (racemic) [triadimenol, (±)-1-(4-chlorophenoxy)-3,3-dimethyl-1-(1H-1,2,4-triazol-1-yl) butan-2-ole]
Qa = concentration of substance A which is the MIC (Gloeophyllum trabeum; a = triadimenol alone, 26° C. agar): 1 | Qa = concentration of substance A which is the MIC (Poria placenta; a = triadimenol alone): 1

CC(C)(C)C(O)(CCc1ccc(Cl)cc1)Cn1cncn1 (centres unmarked) [tebuconazole]
Qa = concentration of substance A which is the MIC (Coniophora puteana; a = tebuconazole alone): 6 | Qa = concentration of substance A which is the MIC (Coriolus versicolor; a = tebuconazole alone): 0.3 | Qa = concentration of substance A which is the MIC (Gloeophyllum trabeum; a = tebuconazole alone, 26° C. agar (Example 3)): 0.5 | Qb = concentration of substance B which is the MIC (Gloeophyllum trabeum; b = tebuconazole alone, 26° C. agar (Example 1)): 0.7 | Qb = concentration of substance B which is the MIC (Poria placenta; b = tebuconazole alone): 1

CC(C)(C)C(=O)C(Oc1ccc(Cl)cc1)n1cncn1 (racemic) [triadimefon, (±)-1-(4-chlorophenoxy)-3,3-dimethyl-1-(1H-1,2,4-triazol-1-yl)butan-2-one]
Qb = concentration of substance B which is the MIC (Coniophora puteana; b = triadimefon alone): 30 | Qb = concentration of substance B which is the MIC (Coriolus versicolor; 26° C. agar (Example 2)): 6 | Qb = concentration of substance B which is the MIC (Coriolus versicolor; 26° C. agar (Example 3)): 3 | Qb = concentration of substance B which is the MIC (Gloeophyllum trabeum; b = triadimefon alone, 26° C. agar): 30 | Qb = concentration of substance B which is the MIC (Poria placenta; b = triadimefon alone): 3
